This note sets out measurements from US12342823B2, “Active compound combinations having insecticidal/acaricidal properties” (Bayer Aktiengesellschaft, priority 2018, dated 2025).

In this experiment the test system is green peach aphid (Myzus persicae). Description: Myzus persicae - spray test on cabbage leaves. In kind it is in vivo. The following applies: mortality, 1600 ppm, spray on infested cabbage leaves. The procedure: The expected efficacy of a given combination of two compounds is calculated as follows (see Colby, S.R., “Calculating Synergistic and antagonistic Responses of Herbicide Combinations”, Weeds 15, pp. 20-22, 1967):
If • X is the efficacy expressed in % mortality of the untreated control for test compound A at a concentration of m ppm or m g/ha, • Y is the efficacy expressed in % mortality of the untreated control for test compound B at a concentration of n ppm or n g/ha, • E is the efficacy expressed in % mortality of the untreated control using the mixture of A and B at m and n ppm respectively m and n g/ha, • then is
If the observed insecticidal efficacy of the combination is higher than the one calculated as “E”, then the combination of the two compounds is more than additive, i.e., there is a synergistic effect.
Myzus persicae—Spray Test
• Solvent: 7 parts by weight of dimethylformamide • Emulsifier: alkylaryl polyglycol ether
To produce a suitable preparation of active compound, 1 part by weight of active compound is mixed with the stated amount of solvent and is diluted with water, containing an emulsifier concentration of 1000 ppm, to the desired concentration. […]
After the specified period of time mortality in % is determined. […] The mortality values determined thus are recalculated using the Colby-formula (see sheet 1).

For the compound `C=C(C)[C@H]1CC=C(C)CC1` [(R)-(+)-limonene 97%, (R)-(+)-limonene], the “Efficacy in % after 6 days” value is given as 0%.
